From ChEMBL document CHEMBL4825736, “Design, synthesis and biological evaluation of naringenin carbamate derivatives as potential multifunctional agents for the treatment of Alzheimer's disease” (Bioorg Med Chem Lett, 2021)
Active and inactive are the calls of the source. No cut-off for these calls is given here.

Columns and labels:
[1] = Antioxidant activity assessed as superoxide anion radical scavenging activity by measuring reduction in anode current by cyclic voltammetry; format: functional
Cholinesterase [2] = target: T1, Cholinesterase (Equus caballus, UniProt P81908)
T1 sequence (P81908 whole entry): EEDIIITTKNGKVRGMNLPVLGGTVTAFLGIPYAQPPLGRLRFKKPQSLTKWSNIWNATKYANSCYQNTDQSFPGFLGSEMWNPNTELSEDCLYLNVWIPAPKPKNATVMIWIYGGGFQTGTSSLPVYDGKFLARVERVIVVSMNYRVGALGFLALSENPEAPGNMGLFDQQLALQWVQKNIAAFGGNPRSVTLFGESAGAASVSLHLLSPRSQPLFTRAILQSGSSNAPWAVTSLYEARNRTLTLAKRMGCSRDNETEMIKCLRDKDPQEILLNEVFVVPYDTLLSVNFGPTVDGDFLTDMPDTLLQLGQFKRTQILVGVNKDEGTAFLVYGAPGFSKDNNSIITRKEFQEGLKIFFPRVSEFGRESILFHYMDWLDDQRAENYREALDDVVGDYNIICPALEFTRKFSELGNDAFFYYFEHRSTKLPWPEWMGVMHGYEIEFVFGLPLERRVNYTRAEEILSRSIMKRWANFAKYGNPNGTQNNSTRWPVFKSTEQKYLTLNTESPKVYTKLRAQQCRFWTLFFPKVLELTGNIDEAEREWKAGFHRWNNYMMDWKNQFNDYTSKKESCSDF
Description: Inhibition of equine serum BuChE by Ellman's method

[3] = target: Amyloid-beta precursor protein (Homo sapiens) (UniProt P05067); experiment: Inhibition of amyloid beta (1 to 42) (unknown origin) self aggregation at 25 uM by Thioflavin T based fluorometric assay
Sequence of Amyloid-beta precursor protein (Homo sapiens) (P05067 whole entry): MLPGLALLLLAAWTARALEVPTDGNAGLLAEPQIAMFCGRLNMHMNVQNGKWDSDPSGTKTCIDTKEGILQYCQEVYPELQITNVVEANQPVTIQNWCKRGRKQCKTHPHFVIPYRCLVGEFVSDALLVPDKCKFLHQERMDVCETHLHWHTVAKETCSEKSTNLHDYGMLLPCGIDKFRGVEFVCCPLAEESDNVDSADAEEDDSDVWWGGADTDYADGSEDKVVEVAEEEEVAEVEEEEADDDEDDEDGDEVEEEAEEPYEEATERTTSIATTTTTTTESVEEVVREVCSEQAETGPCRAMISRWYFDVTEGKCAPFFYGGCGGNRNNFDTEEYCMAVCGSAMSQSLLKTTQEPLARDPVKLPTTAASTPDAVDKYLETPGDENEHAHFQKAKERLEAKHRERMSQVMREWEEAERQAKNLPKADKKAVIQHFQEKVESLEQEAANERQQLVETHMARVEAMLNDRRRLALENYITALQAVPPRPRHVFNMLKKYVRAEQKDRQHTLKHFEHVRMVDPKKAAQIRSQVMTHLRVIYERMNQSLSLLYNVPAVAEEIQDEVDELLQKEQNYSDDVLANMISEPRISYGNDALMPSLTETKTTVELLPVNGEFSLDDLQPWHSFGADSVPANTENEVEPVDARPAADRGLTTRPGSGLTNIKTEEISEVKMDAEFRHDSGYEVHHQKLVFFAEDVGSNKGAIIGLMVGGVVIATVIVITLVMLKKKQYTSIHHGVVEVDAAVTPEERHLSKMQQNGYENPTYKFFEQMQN

[4] = Metal chelating activity assessed as Cu2+-complex formation by measuring inhibition of Cu2+ induced amyloid beta (1 to 42) aggregation at 25 uM by Thioflavin T based fluorometric assay
Acetylcholinesterase = Acetylcholinesterase (Electrophorus electricus, UniProt O42275); experiment: Inhibition of electric eel AChE by Ellman's method
Sequence of Acetylcholinesterase (O42275 whole entry): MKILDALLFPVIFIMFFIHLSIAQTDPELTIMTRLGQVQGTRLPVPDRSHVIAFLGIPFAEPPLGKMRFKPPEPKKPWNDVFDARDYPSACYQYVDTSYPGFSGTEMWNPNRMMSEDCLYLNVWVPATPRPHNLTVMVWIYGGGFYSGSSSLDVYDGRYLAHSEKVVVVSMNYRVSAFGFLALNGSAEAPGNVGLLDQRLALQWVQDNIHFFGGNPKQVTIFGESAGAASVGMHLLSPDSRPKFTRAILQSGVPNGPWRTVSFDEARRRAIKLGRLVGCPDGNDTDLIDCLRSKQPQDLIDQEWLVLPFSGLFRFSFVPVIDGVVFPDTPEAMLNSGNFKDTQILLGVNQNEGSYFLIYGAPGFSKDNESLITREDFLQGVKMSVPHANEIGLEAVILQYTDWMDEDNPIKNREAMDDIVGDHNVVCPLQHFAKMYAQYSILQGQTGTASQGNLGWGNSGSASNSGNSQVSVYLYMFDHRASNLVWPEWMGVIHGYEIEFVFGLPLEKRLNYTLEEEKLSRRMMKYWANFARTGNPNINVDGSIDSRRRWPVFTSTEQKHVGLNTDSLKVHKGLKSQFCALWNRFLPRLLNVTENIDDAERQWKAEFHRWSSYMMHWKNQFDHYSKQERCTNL

[5] = Antioxidant activity assessed as superoxide anion radical scavenging activity by measuring reduction in cathode current by cyclic voltammetry; format: functional
[6] = Metal chelating activity assessed as compound-Fe3+ complex formation by measuring decrease in fluorescence intensity by fluorescence emission spectral analysis
[7] = target: Cholinesterase (Equus caballus) (UniProt P81908); experiment: (§1) Mixed type inhibition of equine serum BuChE by double reciprocal analysis; format: cell-free
Sequence of Cholinesterase (Equus caballus) (P81908 whole entry): as the sequence (P81908 whole entry) above

Cholinesterase [8] = target: T1, Cholinesterase; experiment: as §1; format: cell-free
[9] = Metal chelating activity assessed as compound-Cu2+ complex formation by fluorescence emission spectral analysis
[10] = Metal chelating activity assessed as compound-Zn2+ complex formation by UV spectrophotometric analysis
[11] = Metal chelating activity assessed as compound-Cu2+ complex formation by UV spectrophotometric analysis
[12] = Metal chelating activity assessed as compound-Zn2+ complex formation by measuring new peak formation by fluorescence emission spectral analysis
[13] = Metal chelating activity assessed as compound-Fe3+ complex formation by UV spectrophotometric analysis
[14] = target: Cholinesterase (Equus caballus) (UniProt P81908); experiment: Mixed type inhibition of equine serum BuChE assessed as decrease in Vmax with increase in Km by Lineweaver-Burk plot analysis; format: cell-free

Structure (SMILES)	Activity [1]	IC50 (Cholinesterase [2])	inhibition [3]	inhibition [4]	IC50 (Acetylcholinesterase)	Activity [5]	Activity [6]	Ks [7]	Ki (Cholinesterase [8])	Activity [9]	Activity [10]	Activity [11]	Activity [12]	Activity [13]	inhibition [14]
O=C1C[C@@H](c2ccc(O)cc2)Oc2cc(O)cc(O)c21 [NARINGENIN]	Active	> 100 µM	44.9%	69.2%	> 100 µM	Active									
O=C1CC(c2ccc(O)cc2)Oc2cc(OC(=O)N3CCCCC3)cc(O)c21 (centres undefined)	Active	0.094 µM	36.1%	61.1%	62.5 µM	Active	Active	0.469 µM	1.6 µM	inactive	Active	Active	Active	Active	Active
CN(C)C(=O)Oc1ccc(C2CC(=O)c3c(O)cc(OC(=O)N(C)C)cc3O2)cc1 (centres undefined)		12.2 µM	62.4%	53.5%	23.9 µM		Active			inactive	Active	Active	Active	Active	
CCN(C)C(=O)Oc1cc(O)c2c(c1)OC(c1ccc(O)cc1)CC2=O (centres undefined)		3.42 µM	66.5%	65.5%	28.3 µM		Active			inactive	Active	Active	Active		
COc1cc(/C=C/C(=O)CC(=O)/C=C/c2ccc(O)c(OC)c2)ccc1O				73.3%											
O=C1CC(c2ccc(O)cc2)Oc2cc(OC(=O)N3CCOCC3)cc(O)c21 (centres undefined)		13.7 µM	62.3%	60.9%	12.9 µM		Active			inactive		Active	Active		
